According to patent US8952024B2, “Herbicidal pyrimidone derivatives” (E I du Pont de Nemours and Company, priority 2009, dated 2015):

Columns and labels:
Assay in all cases: Test D pre-/postemergence plant response
Type in all cases: in vivo
kochia (Kochia scoparia) = tested on: kochia (Kochia scoparia)
Excerpt: (§1) Seeds of plant species selected from bermudagrass (Cynodon dactylon), Surinam grass (Brachiaria decumbens), large crabgrass (Digitaria sanguinalis), green foxtail (Setaria viridis), goosegrass (Eleusine indica), johnsongrass (Sorghum halepense), kochia (Kochia scoparia), morningglory (pitted morningglory, Ipomoea lacunosa), nutsedge (purple nutsedge, Cyperus rotundus), ragweed (common ragweed, Ambrosia elatior), black mustard (Brassica nigra), guineagrass (Panicum maximum), dallisgrass (Paspalum dilatatum), barnyardgrass (Echinochloa crus-galli), sandbur (southern sandbur, Cenchrus echinatus), sowthistle (common sowthistle, Sonchus oleraceous), prickly sida (Sida spinosa), Italian ryegrass (Lolium multiflorum), purslane (common purslane, Portulaca oleracea), signalgrass (broadleaf signalgrass, Brachiaria platyphylla), groundsel (common groundsel, Senecio vulgaris), chickweed (common chickweed, Stellaria media), dayflower (Virginia (VA) dayflower, Commelina virginica), bluegrass (annual bluegrass, Poa annua), naked crabgrass (Digitaria nuda), itchgrass (Rottboellia cochinchinensis), quackgrass (Elytrigia repens), field bindweed (Convolvulus arvensis), spanishneedles (Bidens bipinnata), mallow (common mallow, Malva sylvestris) and Russian thistle (Salsola kali), were planted into a blend of loam soil and sand and treated preemergence with test chemicals formulated in a non-phytotoxic solvent mixture which included a surfactant. At the same time, plants from these weed species were treated with postemergence applications of the test chemicals formulated in the same manner. Plants ranged in height from 2 to 18 cm (1- to 4-leaf stage) for postemergence treatments.
(§2) Treated plants and controls were maintained in a greenhouse for 14 to 21 days, after which time all species were visually evaluated and compared to controls. Plant response ratings, summarized in Table D, are based on a scale of 0 to 100 where 0 is no effect and 100 is complete control. A dash (-) response means no test result.

[1] = tested on: purslane (common purslane, Portulaca oleracea)
Excerpt: as §1, §2

[2] = tested on: prickly sida (Sida spinosa)
Excerpt: as §1, §2

[3] = tested on: goosegrass (Eleusine indica)
Excerpt: as §1, §2

[4] = tested on: morningglory (pitted morningglory, Ipomoea lacunosa)
Excerpt: as §1, §2

[5] = tested on: large crabgrass (Digitaria sanguinalis)
Excerpt: as §1, §2

[6] = tested on: ragweed (common ragweed, Ambrosia elatior)
Excerpt: as §1, §2

[7] = tested on: johnsongrass (Sorghum halepense)
Excerpt: as §1, §2

[8] = tested on: green foxtail (Setaria viridis)
Excerpt: as §1, §2

[9] = tested on: chickweed (common chickweed, Stellaria media)
Excerpt: as §1, §2

[10] = tested on: dallisgrass (Paspalum dilatatum)
Excerpt: as §1, §2

[11] = tested on: sowthistle (common sowthistle, Sonchus oleraceous)
Excerpt: as §1, §2

[12] = tested on: bluegrass (annual bluegrass, Poa annua)
Excerpt: as §1, §2

[13] = tested on: barnyardgrass (Echinochloa crus-galli)
Excerpt: as §1, §2

[14] = tested on: nutsedge (purple nutsedge, Cyperus rotundus)
Excerpt: as §1, §2

[15] = tested on: itchgrass (Rottboellia cochinchinensis)
Excerpt: as §1, §2

[16] = Postemergence, 31 g ai/ha, scale 0 to 100
[17] = Postemergence, 125 g ai/ha, scale 0 to 100 (0 no effect, 100 complete control)
[18] = Postemergence, 62 g ai/ha, scale 0 to 100 (0 no effect, 100 complete control)
[19] = Preemergence, 16 g ai/ha, scale 0 to 100, 0 no effect, 100 complete control
[20] = Preemergence, 31 g ai/ha, scale 0 to 100 (0 no effect, 100 complete control)
[21] = Preemergence, 62 g ai/ha, scale 0 to 100
[22] = Preemergence, 125 g ai/ha, scale 0 to 100
[23] = Postemergence, 16 g ai/ha, scale 0 to 100
[24] = Postemergence, 31 g ai/ha, scale 0 to 100 (0 no effect, 100 complete control)

In the case of `O=C1CCCC(O)=C1C(=O)c1cnc(-c2cccs2)n(-c2ccccc2)c1=O` [Compound 66], the “Plant response rating, Kochia” value (kochia (Kochia scoparia); [16]) is reported as 25, the “Plant response rating, Kochia” value (kochia (Kochia scoparia); [17]) is reported as 40 and the “Plant response rating, Kochia” value (kochia (Kochia scoparia); [18]) is reported as 25. For the same compound, the “Plant response rating, Kochia” value (kochia (Kochia scoparia); [19]) was 0, the “Plant response rating, Kochia” value (kochia (Kochia scoparia); [20]) was 65 and the “Plant response rating, Kochia” value (kochia (Kochia scoparia); [21]) was 65. For the same compound, the “Plant response rating, Kochia” value (kochia (Kochia scoparia); [22]) was 90, the “Plant response rating, Purslane” value [1, 16] was 50 and the “Plant response rating, Purslane” value [1, 17] was 75. For the same compound, the “Plant response rating, Purslane” value [1, 18] was 75, the “Plant response rating, Purslane” value [1, 19] was 0 and the “Plant response rating, Purslane” value [1, 20] was 0. The “Plant response rating, Purslane” value [1, 21] was 60, the “Plant response rating, Purslane” value [1, 22] was 100 and the “Plant response rating, Prickly Sida” value [2, 16] was 98. For the same compound, the “Plant response rating, Prickly Sida” value [2, 17] was 98, the “Plant response rating, Prickly Sida” value [2, 18] was 98 and the “Plant response rating, Prickly Sida” value [2, 19] was 0. For the same compound, the “Plant response rating, Prickly Sida” value [2, 20] was 0, the “Plant response rating, Prickly Sida” value [2, 21] was 5 and the “Plant response rating, Prickly Sida” value [2, 22] was 90. For the same compound, the “Plant response rating, Goosegrass” value [3, 23] was 50, the “Plant response rating, Goosegrass” value [3, 16] was 50 and the “Plant response rating, Goosegrass” value [3, 17] was 75. The “Plant response rating, Goosegrass” value [3, 18] was 65, the “Plant response rating, Goosegrass” value [3, 19] was 0 and the “Plant response rating, Goosegrass” value [3, 20] was 0. The “Plant response rating, Goosegrass” value [3, 21] was 30, the “Plant response rating, Goosegrass” value [3, 22] was 50 and the “Plant response rating, Morningglory” value [4, 23] was 65. For the same compound, the “Plant response rating, Morningglory” value [4, 16] was 70, the “Plant response rating, Morningglory” value [4, 17] was 90 and the “Plant response rating, Morningglory” value [4, 18] was 90. For the same compound, the “Plant response rating, Morningglory” value [4, 19] was 0, the “Plant response rating, Morningglory” value [4, 20] was 0 and the “Plant response rating, Morningglory” value [4, 21] was 90. The “Plant response rating, Morningglory” value [4, 22] was 95, the “Plant response rating, Crabgrass, Large” value [5, 23] was 20 and the “Plant response rating, Crabgrass, Large” value [5, 16] was 25. For the same compound, the “Plant response rating, Crabgrass, Large” value [5, 17] was 35, the “Plant response rating, Crabgrass, Large” value [5, 18] was 25 and the “Plant response rating, Crabgrass, Large” value [5, 19] was 15. For the same compound, the “Plant response rating, Crabgrass, Large” value [5, 20] was 30, the “Plant response rating, Crabgrass, Large” value [5, 21] was 50 and the “Plant response rating, Crabgrass, Large” value [5, 22] was 98. The “Plant response rating, Ragweed” value [6, 23] was 0, the “Plant response rating, Ragweed” value [6, 16] was 0 and the “Plant response rating, Ragweed” value [6, 17] was 5. The “Plant response rating, Ragweed” value [6, 18] was 0, the “Plant response rating, Ragweed” value [6, 19] was 0 and the “Plant response rating, Ragweed” value [6, 20] was 0. The “Plant response rating, Ragweed” value [6, 22] was 0, the “Plant response rating, Johnsongrass” value [7, 23] was 0 and the “Plant response rating, Johnsongrass” value [7, 16] was 20. For the same compound, the “Plant response rating, Johnsongrass” value [7, 17] was 60, the “Plant response rating, Johnsongrass” value [7, 18] was 50 and the “Plant response rating, Johnsongrass” value [7, 19] was 0. The “Plant response rating, Johnsongrass” value [7, 20] was 0, the “Plant response rating, Johnsongrass” value [7, 21] was 0 and the “Plant response rating, Johnsongrass” value [7, 22] was 30. The “Plant response rating, Foxtail, Green” value [8, 23] was 20, the “Plant response rating, Foxtail, Green” value [8, 16] was 35 and the “Plant response rating, Foxtail, Green” value [8, 17] was 80. The “Plant response rating, Foxtail, Green” value [8, 18] was 65, the “Plant response rating, Foxtail, Green” value [8, 19] was 0 and the “Plant response rating, Foxtail, Green” value [8, 20] was 0. For the same compound, the “Plant response rating, Foxtail, Green” value [8, 21] was 0, the “Plant response rating, Foxtail, Green” value [8, 22] was 5 and the “Plant response rating, Chickweed” value [9, 17] was 95. For the same compound, the “Plant response rating, Chickweed” value [9, 18] was 35, the “Plant response rating, Chickweed” value [9, 19] was 0 and the “Plant response rating, Chickweed” value [9, 20] was 20. The “Plant response rating, Chickweed” value [9, 21] was 90, the “Plant response rating, Chickweed” value [9, 22] was 98 and the “Plant response rating, Dallisgrass” value [10, 23] was 35. For the same compound, the “Plant response rating, Dallisgrass” value [10, 16] was 35, the “Plant response rating, Dallisgrass” value [10, 17] was 60 and the “Plant response rating, Dallisgrass” value [10, 18] was 35. For the same compound, the “Plant response rating, Dallisgrass” value [10, 19] was 0, the “Plant response rating, Dallisgrass” value [10, 20] was 5 and the “Plant response rating, Dallisgrass” value [10, 21] was 5. For the same compound, the “Plant response rating, Dallisgrass” value [10, 22] was 95, the “Plant response rating, Sowthistle” value [11, 23] was 35 and the “Plant response rating, Sowthistle” value [11, 16] was 65. For the same compound, the “Plant response rating, Sowthistle” value [11, 17] was 90, the “Plant response rating, Sowthistle” value [11, 18] was 70 and the “Plant response rating, Sowthistle” value [11, 19] was 0. For the same compound, the “Plant response rating, Sowthistle” value [11, 20] was 0, the “Plant response rating, Sowthistle” value [11, 22] was 0 and the “Plant response rating, Bluegrass” value [12, 23] was 0. The “Plant response rating, Bluegrass” value [12, 24] was 0, the “Plant response rating, Bluegrass” value [12, 17] was 0 and the “Plant response rating, Bluegrass” value [12, 18] was 0. The “Plant response rating, Bluegrass” value [12, 19] was 0, the “Plant response rating, Bluegrass” value [12, 20] was 0 and the “Plant response rating, Bluegrass” value [12, 21] was 0. The “Plant response rating, Bluegrass” value [12, 22] was 0, the “Plant response rating, Barnyardgrass” value [13, 23] was 35 and the “Plant response rating, Barnyardgrass” value [13, 24] was 65. The “Plant response rating, Barnyardgrass” value [13, 17] was 75, the “Plant response rating, Barnyardgrass” value [13, 18] was 70 and the “Plant response rating, Barnyardgrass” value [13, 19] was 0. The “Plant response rating, Barnyardgrass” value [13, 20] was 0, the “Plant response rating, Barnyardgrass” value [13, 21] was 5 and the “Plant response rating, Barnyardgrass” value [13, 22] was 75. For the same compound, the “Plant response rating, Nutsedge, Purple” value [14, 23] was 0, the “Plant response rating, Nutsedge, Purple” value [14, 16] was 5 and the “Plant response rating, Nutsedge, Purple” value [14, 17] was 30. For the same compound, the “Plant response rating, Nutsedge, Purple” value [14, 18] was 20, the “Plant response rating, Nutsedge, Purple” value [14, 19] was 0 and the “Plant response rating, Nutsedge, Purple” value [14, 20] was 0. For the same compound, the “Plant response rating, Nutsedge, Purple” value [14, 21] was 35, the “Plant response rating, Nutsedge, Purple” value [14, 22] was 70 and the “Plant response rating, Itchgrass” value [15, 23] was 10. For the same compound, the “Plant response rating, Itchgrass” value [15, 16] was 15, the “Plant response rating, Itchgrass” value [15, 17] was 40 and the “Plant response rating, Itchgrass” value [15, 18] was 35. For the same compound, the “Plant response rating, Itchgrass” value [15, 19] was 0, the “Plant response rating, Itchgrass” value [15, 20] was 0 and the “Plant response rating, Itchgrass” value [15, 21] was 0. For the same compound, the “Plant response rating, Itchgrass” value [15, 22] was 0.
